# ChEMBL document CHEMBL5365463, “Identification of a Self-Assembling Small-Molecule Cancer Vaccine Adjuvant with an Improved Toxicity Profile” (J Med Chem, 2023)
# Active and inactive are the calls of the source. The calls are words filed in the database; no cut-off is given here.
# Experiments:
# BMDC = assay: Induction of IL-6 production in mouse BMDC cells at 100 uM; format: functional, cell-based
# RAW264.7 [1] = assay: Induction of apoptosis in mouse RAW264.7 cells assessed as live cells at 8 uM by flow cytometry analysis (reference value: 75.4 %); format: functional
# RAW264.7 [2] = assay: Induction of apoptosis in mouse RAW264.7 cells assessed as live cells at 10 uM by flow cytometry analysis (reference value: 75.4 %); format: functional
# RAW264.7 [3] = assay: Induction of apoptosis in mouse RAW264.7 cells assessed as apoptotic cells at 4 uM by flow cytometry analysis (reference value: 3.26 %); format: functional
# RAW264.7 [4] = assay: Induction of apoptosis in mouse RAW264.7 cells assessed as apoptotic cells at 10 uM by flow cytometry analysis (reference value: 3.26 %); format: functional
# RAW264.7 [5] = assay: Induction of apoptosis in mouse RAW264.7 cells assessed as necrotic cells at 12 uM by flow cytometry analysis (reference value: 20.6 %); format: functional
# [6] = Toxicity in BALB/c mouse assessed as increase in Mx2 expression at 100 to 1000 ug measured after 16 hrs in presence of hemagglutinin; conditions: in vivo, dose 100-1000 µg
# Mus musculus = assay: Immuno-adjuvant activity in SV-immunized C57BL/6 mouse assessed as increase in HA-specific IgG1 titer level at 100 ug, sc administered immediately and on day 0, 14 and measured at day 21 by ELISA; format: functional, organism-based; conditions: dose 100.0 µg, time 21.0 day
# [7] = Upregulation of CD86 expression in mouse RAW264.7 cells assessed as fold increase in fluorescence intensity at 20 uM measured after 24 hrs by flow cytometry analysis; format: functional
# B16-OVA melanoma cell [8] = assay: Antitumor activity against mouse B16-OVA melanoma cell xenografted in C57BL/6 mouse assessed as at 500 ug administered 5 times for every 2 days from day 9 to 17 in presence of OVAp; format: functional, cell-based; conditions: dose 500.0 µg, time 9.0 day
# B16-OVA melanoma cell [9] = assay: Antitumor activity against mouse B16-OVA melanoma cell xenografted in C57BL/6 mouse assessed as increase in CD8+T cell level in spleen at 500 ug measured after 24 hrs in presence of OVAp by flow cytometry analysis; format: functional, cell-based; conditions: dose 500.0 µg
# B16-OVA melanoma cell [10] = assay: Antitumor activity against mouse B16-OVA melanoma cell xenografted in C57BL/6 mouse assessed as increase in number of memory T cells in spleen at 500 ug, sc in presence of OVAp by flow cytometry analysis; format: functional, organism-based; conditions: dose 500.0 µg
# B16-OVA melanoma cell [11] = assay: Antitumor activity against mouse B16-OVA melanoma cell xenografted in C57BL/6 mouse assessed as effect on central memory T cell in spleen at 500 ug, sc in presence of OVAp by flow cytometry analysis; format: functional, organism-based; conditions: dose 500.0 µg
# [12] = Toxicity in C57BL/6 mouse assessed as effect on ALT level in serum at 500 ug measured after 1 day after immunization; conditions: 24 h, dose 500 µg
# [13] = Toxicity in C57BL/6 mouse assessed as effect on glucose level in serum at 500 ug measured after 1 day after immunization; conditions: 24 h, dose 500 µg
# [14] = Toxicity in C57BL/6 mouse assessed as effect on creatinine level in serum at 500 ug measured after 1 day after immunization; conditions: 24 h, dose 500 µg
# [15] = Toxicity in C57BL/6 mouse assessed as effect on kidney at 500 ug, sc by H and E staining based analysis; format: organism-based; conditions: in vivo, dose 500 µg
# [16] = Toxicity in C57BL/6 mouse assessed as effect on liver at 500 ug, sc by H and E staining based analysis; format: organism-based; conditions: in vivo, dose 500 µg
smiles,measurement,setting,value
C[C@H](CCC(=O)NCCCCCCCNC(=O)CC[C@@H](C)[C@H]1CC[C@H]2[C@@H]3CC[C@@H]4C[C@H](O)CC[C@]4(C)[C@H]3C[C@H](O)[C@]12C)[C@H]1CC[C@H]2[C@@H]3CC[C@@H]4C[C@H](O)CC[C@]4(C)[C@H]3C[C@H](O)[C@]12C,Activity,BMDC,Active
same,Activity,RAW264.7 [1],60.7%
same,Activity,RAW264.7 [2],67.2%
same,Activity,RAW264.7 [3],2.1%
same,Activity,RAW264.7 [4],2.23%
same,Activity,RAW264.7 [5],30.5%
same,Activity,[6],Non-Toxic
same,Activity,Mus musculus,Active
same,fold change (FC),[7],2
same,Activity,B16-OVA melanoma cell [8],Active
same,Activity,B16-OVA melanoma cell [9],Active
same,Activity,B16-OVA melanoma cell [10],Active
same,Activity,B16-OVA melanoma cell [11],Active
same,Activity,[12],Non-Toxic
same,Activity,[13],Non-Toxic
same,Activity,[14],Non-Toxic
same,Activity,[15],Non-Toxic
same,Activity,[16],Non-Toxic
